We go through 16 compounds from PubChem BioAssay (NCI).

Experiment in all cases: growth of human tumour cells (NCI), 48 h
The test system of assay [1] is TK-10 renal.
Assay [2] relates to K-562 leukemia.
For assay [3], the system named is HOP-92 NSCLC.
Assay [4] has as its system UACC-257 melanoma.
Assay [5] deals with SNB-19 CNS.
The subject of assay [6] is KM12 colon.
For assay [7], the system named is U251 CNS.
Assay [8] concerns UACC-62 melanoma.
The test system of assay [9] is M14 melanoma.
The test system of assay [10] is IGROV1 ovarian.
The subject of assay [11] is NCI/ADR-RES ovarian.
Assay [12] deals with SK-MEL-28 melanoma.
Assay [13] relates to OVCAR-4 ovarian.
The test system of assay [14] is T-47D breast.
The subject of assay [15] is HOP-62 NSCLC.
Assay [16] has as its system RXF 393 renal.

Each structure is given as a SMILES string.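 Exposure lasted 48 hours, with cells grown in 96-well plates and compounds tested at five concentrations. TGI: total growth inhibition.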

In the case of `CC(=O)O[C@@H](C1C[C@@H](C)[C@H]2[C@@](O)(O1)[C@H](O)[C@@]1(C)C3=CC[C@H]4C(C)(C)[C@@H](OC5OCC(O)C(O)C5O)CC[C@@]45C[C@@]35CC[C@]21C)C(C)(C)O` (stereo partly specified), the TGI is 69.5 µM in assay [1]; above 100 µM in assay [2]; 60.5 µM in assay [3]; 38.4 µM in assay [4]; above 100 µM in [5]; 58.1 µM in assay [6]. For the same compound, the TGI is 36 µM in [7]; 40.3 µM in [8]; above 100 µM in [9]; above 100 µM in [10]; above 100 µM in assay [11]; 57 µM in assay [12]. For the same compound, the TGI in assay [13] was above 100 µM; in [14] it was 67.7 µM; in assay [15], 70.7 µM; in [16], 36.9 µM.
Consider `CN(C)CC1CN=C(NC(=O)Nc2ccccc2)O1` (stereo unspecified), for which the TGI in assay [1], in assay [2], in [3], in [4], in [5] and in assay [6] was above 100 µM in each case. In addition, the TGI in [7], in [8], in assay [9], in assay [10], in [11] and in [12] was above 100 µM in each case. For the same compound, the TGI in assay [13], in assay [14], in [15] and in assay [16] was above 100 µM throughout.
Turning to `CC(C)C(NC(=O)C(Cc1ccccc1)NC(=O)[C@H]1CCC[C@H]1NC(=O)C(N)Cc1ccc(O)cc1)C(N)=O` (stereo partly specified), the TGI in [1], in assay [2], in assay [3], in [4], in assay [5] and in assay [6] was above 100 µM throughout. Further, the TGI in [7], in [8], in assay [9], in assay [10], in assay [11] and in assay [12] was above 100 µM throughout. Also, the TGI in [13], in assay [14], in assay [15] and in assay [16] was above 100 µM each time.
For `NC(=O)c1cccc([C@@H]2O[C@H](CO)[C@@H](O)[C@H]2O)c1`, the TGI is 99.1 µM in assay [1]; 41.3 µM in assay [2]; above 69.6 µM in assay [3]; above 100 µM in assay [4]; 34.3 µM in [5]; 15.9 µM in assay [6]. Besides, the TGI in assay [7] is 32.4 µM; in assay [8] it was 60 µM; in assay [9], 12.4 µM; in assay [10] it was 85.6 µM; in [11] it was 16.3 µM; in assay [12], 29.6 µM. Besides, the TGI in assay [13] is 19.7 µM; in [14] it was above 66.6 µM; in [15], 28 µM; in assay [16], 34.6 µM.
As for `O=C1Oc2cc3c(c4cccc1c24)O[C@H](c1ccccc1)[C@@H](c1ccccc1)[C@@H]3c1ccc(Cl)cc1`, the TGI in [1] is above 100 µM; in [2] it was above 100 µM; in assay [3], 67.9 µM; in assay [4], above 100 µM; in assay [5], above 100 µM; in [6] it was above 100 µM. The TGI in [7] is 50.1 µM; in [8], above 100 µM; in assay [9] it was above 100 µM; in assay [10] it was 77.4 µM; in assay [11], above 100 µM; in [12], above 100 µM. The TGI in assay [13] was above 100 µM; in [14] it was above 100 µM; in [15] it was 42.8 µM; in [16], 40.1 µM.
Turning to `COc1ccc(CCNC(=O)[C@H]2CCCC[C@@H]2CCO)cc1OC`, the TGI in assay [1], in [2], in [3], in assay [4], in [5] and in [6] was above 100 µM each time. Further, the TGI in [7], in assay [8], in assay [9], in assay [10], in assay [11] and in assay [12] was above 100 µM throughout. Also, the TGI in assay [13], in assay [14], in [15] and in assay [16] was above 100 µM in each case.
Consider `CCCCNC(=S)/N=C/c1c(O)c2ccccc2[nH]c1=O`, for which the TGI in [1], in assay [2], in assay [3], in assay [4], in [5] and in assay [6] was above 10 µM each time. Also, the TGI in assay [7], in assay [8], in assay [9], in assay [10], in assay [11] and in assay [12] was above 10 µM in each case. The TGI in [13], in assay [14], in assay [15] and in assay [16] was above 10 µM each time.
In the case of `C=C(C)C12CC3CC/C(=N/O)C(C1)C3(N1CCOCC1)C/C2=N/O` (stereo unspecified), the TGI in [1], in assay [2], in assay [3], in assay [4], in [5] and in [6] was above 100 µM in each case. The TGI in [7], in assay [8], in [9], in assay [10], in assay [11] and in assay [12] was above 100 µM throughout. Also, the TGI in assay [13], in [14], in [15] and in assay [16] was above 100 µM in each case.
`CCOP(=O)(OCC)/C(C#N)=C/c1c[nH]c2ccccc12`: the TGI in assay [1], in assay [2], in [3], in [4], in assay [5] and in assay [6] was above 100 µM in each case. Also, the TGI in assay [7], in [8], in [9], in assay [10], in [11] and in [12] was above 100 µM throughout. For the same compound, the TGI in [13], in assay [14], in [15] and in [16] was above 100 µM throughout.
For the compound `O=C1NC2(CCN(CCCC3(c4ccc(F)cc4)OCCO3)CC2)Oc2ccccc21`, the TGI in assay [1], in assay [2], in assay [3], in assay [4], in [5] and in assay [6] was above 100 µM throughout. For the same compound, the TGI in assay [7], in [8], in assay [9], in [10], in assay [11] and in assay [12] was above 100 µM throughout. Further, the TGI in assay [13], in assay [14], in assay [15] and in assay [16] was above 100 µM each time.
With `COc1cc(C(=O)Oc2c(C#N)sc3c2c(=O)n(-c2ccccc2)c(=S)n3-c2ccccc2)cc(OC)c1OC`, the TGI in assay [1] is 95.9 µM; in assay [2], 82.2 µM; in assay [3] it was 64.4 µM; in assay [4], above 100 µM; in [5], 72 µM; in [6], 39.7 µM. For the same compound, the TGI in assay [7] worked out at 45.9 µM; in assay [8], 54.7 µM; in [9], 25.6 µM; in assay [10] it was 41 µM; in assay [11], 41.3 µM; in assay [12], 46.3 µM. In addition, the TGI is 80.9 µM in [13], above 100 µM in assay [14], 48.3 µM in assay [15] and 47.9 µM in [16].
As for `COc1ccc(C(=O)Nc2ccc3oc(-c4ccccc4)nc3c2)cc1`, the TGI in assay [1], in assay [2], in assay [3], in assay [4], in assay [5] and in assay [6] was above 100 µM throughout. Also, the TGI in assay [7], in [8], in assay [9], in assay [10], in assay [11] and in assay [12] was above 100 µM in each case. Moreover, the TGI in [13], in assay [14], in assay [15] and in assay [16] was above 100 µM throughout.
In the case of `COP(=O)(OC)/C(=C\c1cn(C(c2ccccc2)(c2ccccc2)c2ccccc2)cn1)NC(C)=O`, the TGI in [1], in assay [2], in assay [3], in [4], in assay [5] and in assay [6] was above 100 µM each time. Further, the TGI in assay [7], in assay [8], in assay [9], in assay [10], in [11] and in assay [12] was above 100 µM each time. For the same compound, the TGI in assay [13] is above 100 µM; in assay [14] it was above 100 µM; in assay [15] it was above 100 µM; in [16], 83.6 µM.
In the case of `CC#CC(O)(C(=O)OC1CC2CCC(C1)N2C)C1CCCC1` (stereo unspecified), the TGI in assay [1], in assay [2], in [3], in assay [4], in assay [5] and in assay [6] was above 100 µM each time. Besides, the TGI in assay [7], in [8], in assay [9], in [10], in [11] and in [12] was above 100 µM in each case. In addition, the TGI in assay [13], in assay [14], in [15] and in [16] was above 100 µM throughout.
Consider `COc1ccccc1CNC(=O)[C@H](Cc1ccc(O)cn1)NC(C)=O`, for which the TGI in assay [1], in assay [2], in [3], in [4], in [5] and in [6] was above 100 µM each time. The TGI in assay [7], in assay [8], in assay [9], in assay [10], in [11] and in [12] was above 100 µM in each case. Moreover, the TGI in [13], in [14], in assay [15] and in assay [16] was above 100 µM each time.
On to `O=c1[nH]c2c(c(=O)[nH]1)SSC2`, for which the TGI in assay [1] was 29.9 µM; in [2], 5.52 µM; in [3], 10.7 µM; in assay [4] it was 14.8 µM; in assay [5], above 81.3 µM; in assay [6], 38.8 µM. Further, the TGI in assay [7] is 30.1 µM; in assay [8], 9.14 µM; in assay [9] it was 4.91 µM; in assay [10] it was 56.8 µM; in assay [11], 8.76 µM; in [12], 18.7 µM. In addition, the TGI in assay [13] stood at 31.4 µM; in assay [14], 25.2 µM; in assay [15], 23.5 µM; in [16], 28.5 µM.
